Measurements: ChEMBL document CHEMBL1201862, “PubChem BioAssay data set” (2004)
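Five concentrations, 48 hours, 96-well plates. GI50 = concentration required for 50% inhibition of growth.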 The source made the active and inactive calls. Rule as the data show it: active = GI50 up to about 1.1 µM and inactive = higher.

Experiments:
Experiment in all cases: inhibition of tumour cell growth, NCI panel, 48 h
A498 = system: A498
A549 = system: A549
ACHN = system: ACHN
DU-145 = system: DU-145
Hs-578T = system: Hs-578T
K562 = system: K562
KM12 = system: KM12
M14 = system: M14
MDA-MB-231 = system: MDA-MB-231
MDA-MB-435 = system: MDA-MB-435
NCI-H522 = system: NCI-H522
OVCAR-3 = system: OVCAR-3
OVCAR-4 = system: OVCAR-4
OVCAR-8 = system: OVCAR-8
PC-3 = system: PC-3
SK-MEL-2 = system: SK-MEL-2
SR = system: SR
SW-620 = system: SW-620
UO-31 = system: UO-31
RXF 393 = system: RXF 393

Measured: GI50

O=C1c2ccccc2C(=O)c2c1ccc(C(=O)O)c2-c1ccc2ccccc2c1
inactive: A498 29 µM | A549 30.5 µM | ACHN 30.8 µM | DU-145 16.2 µM | Hs-578T 23.9 µM | K562 25.9 µM | KM12 27 µM | M14 20.5 µM | MDA-MB-231 23.2 µM | MDA-MB-435 23.8 µM | NCI-H522 23.7 µM | OVCAR-3 18.2 µM | OVCAR-4 30.8 µM | OVCAR-8 33.5 µM | PC-3 24.5 µM | SK-MEL-2 19.1 µM | SR 16.6 µM | SW-620 29.4 µM | UO-31 21.2 µM

O=c1c(O)c(-c2cc(O)c(O)cc2O)oc2cc(O)c(C3OC(CO)C(O)C(O)C3O)c(O)c12 (configuration not stated)
inactive: A498 > 100 µM | A549 > 100 µM | ACHN > 100 µM | DU-145 > 100 µM | Hs-578T > 100 µM | K562 > 100 µM | KM12 > 100 µM | M14 > 100 µM | MDA-MB-231 > 100 µM | MDA-MB-435 > 100 µM | NCI-H522 > 100 µM | OVCAR-3 > 100 µM | OVCAR-4 > 100 µM | OVCAR-8 > 100 µM | PC-3 > 100 µM | SK-MEL-2 > 100 µM | SR > 100 µM | SW-620 > 100 µM | UO-31 > 100 µM

Cc1ccc(C)n1-c1ccccc1C1C=CN(C(=O)OC(C)(C)C)C=C1
inactive: A498 50.5 µM | A549 31.1 µM | ACHN 32.6 µM | DU-145 56.4 µM | Hs-578T 37.8 µM | K562 32.3 µM | KM12 14.9 µM | M14 28.8 µM | MDA-MB-231 19.7 µM | MDA-MB-435 36.2 µM | NCI-H522 16.6 µM | OVCAR-3 17.8 µM | OVCAR-4 71.4 µM | OVCAR-8 32.7 µM | PC-3 25.9 µM | RXF 393 19.6 µM | SK-MEL-2 16.9 µM | SW-620 19.2 µM | UO-31 33.1 µM
